Legend:
[1] = biological target: T1, Ras farnesyl transferase (Homo sapiens, UniProt P49354+P49356); experiment: in vitro inhibitory activity for Ras farnesyl transferase, H-Ras substrate; type: biochemical
T1 construct: made in house
Procedure: (§1) In the present experiment, Ras farnesyl transferase produced by genetic recombination techniques according to the improved Pompliano's method (Pompliano et al., Biochemistry, 1992, 31, 3800) was used, and Ras substrate(Ras-CVLS) protein described in Korean Patent Appln. No. 97-14409 was used after it has been purified according to the known method(see, Chung et al., Biochimica et Biophysica Acta, 1992, 278, 1129).
(§2) The enzyme reaction was performed in 50 μl of 50 mM Soduam HEPES buffer solution containing 25 mM of potassium chloride, 25 mM of magnesium chloride, 10 mM of DTT and 50 μM of zinc chloride. 1.5 μM of Ras substrate protein, 0.15 μM of tritium-farnesylpyrophosphate and 4.5 nM of farnesyl transferase were used.
(§3) More specifically, in the initial step, farnesyl transferase was added to the above buffer solution, reaction was maintained for 30 minutes at 37° C. and then the reaction was stopped by adding 1 ml of ethanol solution containing 1M HCl. The formed precipitates were adsorbed to GF/B filter using Hopper harvestor(Hopper #FH 225V) for filter-binding, washed with ethanol, and then radioactivity of the dried filter was measured using LKB β counter. Enzyme titer was measured in the unsaturated state of substrate where the concentrations of Ras substrate protein and farnesyl transferase have quantitative relationship. The compound according to the present invention dissolved in dimethyl sulfoxide(DMSO) was added to the reaction solution in an amount of less than 5% of the total reaction solution, and then the enzyme inhibitory activity thereof was measured. The enzyme inhibitory activity was represented by percentage of the amount of farnesyl incorporated into the Ras substrate protein in the presence of the test compound to that in the absence of the test compound. IC50 of the test compound was defined as the concentration at which 50% of the enzyme activity was inhibited.

[2] = biological target: T1, Ras farnesyl transferase; experiment: in vitro inhibitory activity for Ras farnesyl transferase, K-Ras substrate; type: biochemical
Procedure: as §1, with “and Ras substrate(Ras-CVLS) protein described in Korean Patent” left out
as §2, §3

[3] = biological target: T2, Ras farnesyl transferase (Rattus norvegicus, UniProt Q02293+Q04631); experiment: in vivo (cellular) Ras farnesyl transferase inhibitory activity, Rat2 cells expressing C-Harvey-Ras; type: cell-based
T2 construct: endogenous in cells; host or cells: Rat2 fibroblasts transformed with C-Harvey-Ras, or with H-Ras carrying the K-Ras C-terminal polybasic lysine domain
Procedure: (§4) In the present experiment, Rat2 cell line which expresses C-Harvey-Ras protein having transforming activity and Rat2 cell line(Korean patent application No. 97-14409) which is transformed with fused protein of H-Ras substituted with polybasic lysine domain at C-terminus of K-Ras were used. The experiment was performed by the modified Declue's method(Declue. J. E. et al., Cancer Research, 1991, 51, 712). Hereinafter, the experimental method will be described in more detail.
(§5) 3×10^5 cells of transformed Rat2 fibroblast cell line were sprayed on 60 mm cell cultivation dish and cultivated for 48 hours in a cell incubator at 37° C. and after 50% or more of density was reached, it was treated with the test compounds. The compound according to the present invention dissolved in dimethylsulfoxide(DMSO) was used. 1% concentration of dimethylsulfoxide was used in both control and test groups. After 4 hours from the treatment with the compound, methionine labeled with 150 μCi of radioactive isotope [^35S] per 1 ml of medium was added and after cultivating for 20 hours, the cells were washed with physiological saline water. The cells were lysed using 1 ml of cold cell lysis buffer solution(50 mM of Sodium HEPES buffer solution containing 5 mM of magnesium chloride, 1 mM of DTT, 1% NP 40, 1 mM of EDTA, 1 mM of PMSF, 2 μM of leupeptin, 2 μM of pepstatin A and 2 μM of antipain) and the supernatant wherein the cells were lysed was obtained by high-velocity centrifugation of 12,000 g×5 minutes. The amount of radioisotope in the supernatant was measured and standardized to obtain a quantitative result in immunoprecipitation reaction and then, Y13-259, a monoclonal antiboby specifically binding to Ras protein(Furth, M. E. et al., J. Virol, 1982, 43, 294) was added and reacted for 15 hours at 4° C. Protein A(combined with goat anti-murine imunoglobulin antibody)-agarose suspension was added to the solution and reacted for 1 hour at 4° C. and then, to remove the unspecific binding product, immunoprecipitates were washed with a buffer solution (50 mM Tris chloride buffer solution containing 50 mM of sodium chloride, 0.5% of sodium dioxycholate, 0.5% of NP 40 and 0.1% of SDS). The precipitates were added to a buffer solution for electrophoresis and boiled and then, electrophoresis was performed using 13.5% of SDS polyacrylamide gel. After electrophoresis, the gel was fixed and dried. Then, the gel was exposed to X-ray film, developed and printed. From the result of the experiment, intensities of band of protein combined with or without farnesyl of Ras protein were measured, and the concentration of the test compound inhibiting 50% of farnesyl binding was defined as CIC50, an in vivo Ras farnesyl transferase inhibitory activity.

[4] = biological target: T2, Ras farnesyl transferase; experiment: in vivo (cellular) Ras farnesyl transferase inhibitory activity, Rat2 cells transformed with H-Ras fused with polybasic lysine domain of K-Ras; type: cell-based
Procedure: as §4, §5

[5] = recombinant Ras farnesyl transferase, H-Ras substrate, tritium-farnesylpyrophosphate, 30 minutes at 37° C., read-out: H-Ras IC50
[6] = recombinant Ras farnesyl transferase, K-Ras substrate, read-out: K-Ras IC50
[7] = Rat2 cell line expressing C-Harvey-Ras, concentration inhibiting 50% of farnesyl binding of Ras protein, read-out: H-Ras CIC50
[8] = Rat2 cell line transformed with H-Ras substituted with polybasic lysine domain at C-terminus of K-Ras, concentration inhibiting 50% of farnesyl binding, read-out: K-Ras CIC50

| Compound | IC50 [1, 5] [nM] | IC50 [2, 6] [nM] | IC50 [3, 7] [nM] | IC50 [4, 8] [µM] | IC50 [1] [nM] | IC50 [2] [nM] | IC50 [3] [nM] | IC50 [4] [µM] |
| --- | --- | --- | --- | --- | --- | --- | --- | --- |
| COCCN(C)C(=O)c1cn(Cc2cncn2CC2CCN(C(=O)OCC(C)C)CC2)cc1-c1cccc2ccccc12 [Compound 35, 1-[1-(1-Isobutoxycarbonyl-piperidin-4-ylmethyl)-1H-imidazol-5-ylmethyl]-3-[N-(2-methoxyethyl)-N-methyl]carbamoyl-4-(naphthalen-1-yl)-1H-pyrrole] | 6 | 10 to 100 | 10 to 100 | 1 to 10 |  |  |  |  |
| O=C(c1ccn(Cc2cncn2CC2CCN(C(=O)OCc3ccccc3)CC2)c1)c1cccc2ccccc12 [Compound 36, 1-{1-[1-(Benzyloxycarbonyl)piperidin-4-yl]methyl-1H-imidazol-5-yl}methyl-3-(naphthalen-1-yl)carbonyl-1H-pyrrole] |  |  |  |  | 200 | > 100000 | 10000 | 50 |
| CC(=O)N1CCC(Cn2cncc2Cn2ccc(C(=O)c3cccc4ccccc34)c2)CC1 [Compound 37, 1-[1-(1-Acetylpiperidin-4-yl)methyl-1H-imidazol-5-yl]methyl-3-(naphthalen-1-yl)carbonyl-1H-pyrrole] |  |  |  |  | 350 | 10000 to 100000 | 1000 to 10000 | 10 to 50 |
| CN1CCN(C(=O)c2cn(Cc3cncn3CC3CCN(C(=O)OCc4ccccc4)CC3)cc2-c2cccc3ccccc23)CC1 [Compound 38, 1-[1-(1-Benzyloxycarbonylpiperidin-4-yl)methyl-1H-imidazol-5-yl]methyl-3-(4-methylpiperazin-1-yl)carbonyl-4-(naphthalen-1-yl)-1H-pyrrole] | 3.8 | 15 | 12.5 | 2.5 |  |  |  |  |
| CN(C)CCN(C)C(=O)c1cn(Cc2cncn2CC2CCN(C(=O)OCc3ccccc3)CC2)cc1-c1cccc2ccccc12 [Compound 39, 1-[1-(-Benzyloxycarbonylpiperidin-4-yl)methyl-1H-imidazol-5-yl]methyl-3-{N-[2-(N,N-dimethylamino)ethyl]-N-methyl}carbamoyl-4-(naphthalen-1-yl)-1H-pyrrole] | 300 | 1500 | 1000 | 30 to 100 |  |  |  |  |
| COC(=O)N1CCC(Cn2cncc2Cn2cc(C(=O)N3CCN(C)CC3)c(-c3cccc4ccccc34)c2)CC1 [Compound 40, 1-[1-(1-Methoxycarbonylpiperidin-4-yl)methyl-1H-imidazol-5-yl]methyl-3-(4-methylpiperazin-1-yl)carbonyl-4-(naphthalen-1-yl)1H-pyrrole] | 1.6 | 4.2 | 30 | 10 to 50 |  |  |  |  |
| CN1CCN(C(=O)c2cn(Cc3cncn3CC3CCN(S(C)(=O)=O)CC3)cc2-c2cccc3ccccc23)CC1 [Compound 41, 3-(4-Methylpiperazin-1-yl)carbonyl-1-[1-(1-methylsulfonylpiperidin-4-yl)methyl-1H-imidazol-5-yl]methyl-4-(naphthalen-1-yl)-1H-pyrrole] | 3 | 10 | 50 | 10 to 50 |  |  |  |  |
| CC(=O)N1CCC(Cn2cncc2Cn2cc(C(=O)N3CCN(C)CC3)c(-c3cccc4ccccc34)c2)CC1 [Compound 42, 1-[1-(1-Acetylpiperidin-4-yl)methyl-1H-imidazol-5-yl]methyl-3-(4-methylpiperazin-1-yl)carbonyl-4-(naphthalen-1-yl)-1H-pyrrole] | 1.2 | 6 | 25 | 10 to 50 |  |  |  |  |
| CN1CCN(C(=O)c2cn(Cc3cncn3CC3CCN(C(=O)CCc4ccccc4)CC3)cc2-c2cccc3ccccc23)CC1 [Compound 43, 3-(4-Methylpiperazin-1-yl)carbonyl-4-(naphthalen-1-yl)-1-{1-[1-(2-phenylethylcarbonyl)-piperidin-4-yl]methyl-1H-imidazol-5-yl}methyl-1H-pyrrole] | 2 | 10 | 50 | 10 to 50 |  |  |  |  |
| CN1CCN(C(=O)c2cn(Cc3cncn3CC3CCN(C(=O)COc4ccccc4)CC3)cc2-c2cccc3ccccc23)CC1 [Compound 44, 3-(4-Methylpiperazin-1-yl)carbonyl-4-(naphthalen-1-yl)-1-[1-(1-phenoxyacetylpiperidin-4-yl)methyl-1H-imidazol-5-yl]methyl-1H-pyrrole] | 2 | 11 | 50 | 10 to 50 |  |  |  |  |
| CN1CCN(C(=O)c2cn(Cc3cncn3CC3CCN(C(=O)OCc4ccc5ccccc5c4)CC3)cc2-c2cccc3ccccc23)CC1 [Compound 45, 3-(4-Methylpiperazin-1-yl)carbonyl-4-(naphthalen-1-yl)-1-{1-[1-(naphthalen-2-ylmethyloxy)carbonylpiperidin-4-yl]methyl-1H-imidazol-5-yl}methyl-1H-pyrrole] | 1.8 | 12 | 35 | 10 |  |  |  |  |
| CC(C)CCOC(=O)N1CCC(Cn2cncc2Cn2cc(C(=O)N3CCN(C)CC3)c(-c3cccc4ccccc34)c2)CC1 [Compound 46] | 2.2 | 16 | 25 | 10 to 50 |  |  |  |  |
| CN1CCN(C(=O)c2cn(Cc3cncn3CC3CCN(C(=O)OCc4ccc(F)cc4)CC3)cc2-c2cccc3ccccc23)CC1 [Compound 47] | 3.3 | 6 | 12.5 | 4 |  |  |  |  |
| CN1CCN(C(=O)c2cn(Cc3cncn3CC3CCN(C(=O)OC/C=C/c4ccccc4)CC3)cc2-c2cccc3ccccc23)CC1 [Compound 48] | 3.3 | 7 | 12.5 | 1 |  |  |  |  |
| CN1CCN(C(=O)c2cn(Cc3cncn3CC3CCN(C(=O)c4ccc5ccccc5c4)CC3)cc2-c2cccc3ccccc23)CC1 [Compound 49] | 1.8 | 12 | 350 | 10 |  |  |  |  |
| CN1CCN(C(=O)c2cn(Cc3cncn3CC3CCN(C(=O)/C=C/c4ccccc4)CC3)cc2-c2cccc3ccccc23)CC1 [Compound 50] | 1.7 | 8 | 30 | 10 to 50 |  |  |  |  |
| CC(C)c1nc(C(=O)N2CCC(Cn3cncc3Cn3cc(C(=O)N4CCN(C)CC4)c(-c4cccc5ccccc45)c3)CC2)cs1 [Compound 51] | 3 | 10 | 5 | 10 to 50 |  |  |  |  |

Reference: patent US6436960B1, “Farnesyl transferase inhibitors having a piperidine structure and process for preparation thereof” (LG Chemical Ltd., priority 1998, dated 2002)
